# Source: patent publication US9057076B2, “Compounds purified from blue roses” (SUNTORY HOLDINGS LIMITED, priority 2009, dated 2015)
# Experiments:
# [1] = Visible to ultraviolet absorption spectrum by HPLC with photodiode array detector; format: physicochemical; conditions: for λmax (absorption maximum): in 30% acetonitrile and 0.5% TFA, spectra 650 nm to 250 nm; for color compared with the compound of formula (II) of Patent Document 3: judged from the longer wavelength of the absorption maximum
# Experimental: The blue pigment (1), the red pigment (2) and the blue pigment (3) were analyzed by HPLC, and their absorption spectra at 650 nm to 250 nm in 30% acetonitrile and 0.5% TFA were measured with a photodiode array detector (see FIGS. 3, 5 and 7).
# HPLC was carried out by using a Shodex Asahipak ODP50 column (Showa Denko, 4.6 mm in diameter×25 cm) for the column and isocratic elution of a mobile phase consisting of 30% acetonitrile and 0.5% TFA at a flow rate of 0.6 ml/min. Detection was carried out by measuring the absorption spectra at 650 nm to 250 nm with a photodiode array detector (SPDM10Avp, Shimadzu) and monitoring the chromatogram at A560 nm.
# [2] = Visual observation of color tone of isolated pigments; format: physicochemical
# Source text: The freeze-dried product, the blue pigment (1), the red pigment (2) and the blue pigment (3) obtained in the manner described above were visually observed for color tone.
# The blue pigment (1), the red pigment (2) and the blue pigment (3) were visually observed for color tone.
# [3] = freeze-dried product from Lavande variety transfected with plasmid pSPB919 (Example 1)
# [4] = pigments from variety WKS82 transfected with plasmid pSPB130 (Example 3)
λmax (absorption maximum) [1],color compared with the compound of formula (II) of Patent Document 3 [1],"color tone, visually observed [2, 3]","color tone, visually observed [2, 4]",SMILES
593 nm,deeper blue color,deep blue,deep blue,O=C(OC1C(O)OC2COC(=O)c3cc(Oc4c(-c5cc(O)c(O)c(O)c5)[o+]c5cc(O)cc6c5c4-c4c(C(=O)O)cc(O)c(O)c4O6)c(O)c(O)c3-c3c(cc(O)c(O)c3O)C(=O)O[C@H]2C1OC(=O)c1cc(O)c(O)c(O)c1)c1cc(O)c(O)c(O)c1 (some centres unmarked) [blue pigment (1)]
594 nm,deeper blue color,deep blue,deep blue,O=C(OC1C(OC(=O)c2cc(O)c(O)c(O)c2)[C@@H]2OC(=O)c3cc(O)c(O)c(O)c3-c3c(cc(Oc4c(-c5cc(O)c(O)c(O)c5)[o+]c5cc(O)cc6c5c4-c4ccc(O)c(O)c4O6)c(O)c3O)C(=O)OCC2O[C@H]1OC(=O)c1cc(O)c(O)c(O)c1)c1cc(O)c(O)c(O)c1 (some centres unmarked) [blue pigment (3)]
535 nm,–,deep red,deep red,O=c1oc2c(-c3cc(O)c(O)c(O)c3)[o+]c3cc(O)cc4c3c2c2c(c(O)c(O)cc12)O4 [red pigment (2)]
